Assays:
ECS-induced amnesia = assay: Passive avoidance test, amnesia induced by electroconvulsive shock (ECS); assay type: in vivo, Male CDI mice; conditions: percentage of amnesia reversal, given 30 minutes before training, retention 24 hours later
Method: In order to assess the antiamnesic activity the passive avoidance test in mince was used.
Male CDI mice weighing 25-26 g (charles River, Germany) fed on a normal diet, were used.
The compounds were administered i.p.; doses equimolar to 9.0 and 0.9 mg piracetam kg ⁻¹ were used.
The water-soluble compounds were dissolved in saline; the insoluble ones were dissolved in dimethylsulfoxide and then diluted in 2% Tween 80, ratio 1:4.
The apparatus for passive avoidance conditioning was a black plastic chamber (42 x 42 cm, height 40 cm), provided with a floor constructed of metal that could be electrified. From the front wall extended a white runway, 30 cm long and 10 cm wide provided with side walls 12 cm high, which led into the box through a guillotine door.
The animals, 30 minutes following treatment, were placed on the runways. After one minute of adaptation, the door was raised and the time employed by the animal to enter the darkened with all four feet, was recorded.
Upon entry, the guillotine door was lowered and 3 seconds thereafter the rods were electrified, 0.24 mA for 2 seconds. The mouse was then removed from the chamber and immediately administered and electroshock delivered through spring clips attached to the ears (square wave, intensity 20 mA, amplitude 0.6 msec, duration 0.5 s, frequency 50 Hz). Immediately thereafter the animal was placed in the housing cage. Retention was assessed 24 hours later by placing the animal on the runways and again evaluating the latency in entering the chamber, using an end-point of 300 s (crf. Brammer, loc. cit.).
In each experiment, two groups of animals in addition to the treated ones were used, that were defined as follows: • (1) ceiling control animals (treated with placebo and not subjected to ECS amnesia treatment) to ensure that these animals not treated with the amnesia agent remembered the task; • (2) base-line control animals (treated with placebo and subjected to ECS amnesia treatment) to ensure that ECS produced amnesia in the animals not treated with the compounds of the present invention.
The sum ΣAij encompasses all the possible pairs obtained by combining each term Xi with each term Xj.

[1] = Behavioural profile (Irwin test); assay type: in vivo, male CDI Mice; conditions: mouse, in vivo; oral, 90 mg/kg (equimolar to piracetam), monitored for 6 hours; read-out: death rate
Method: (§1) The behavioural profile was assessed in male CDI Mice (Charles River, Italy) weighing 22-24 g, using the Irwin test (IRWIN S., Drug screening and evaluation procedures; 136, 123-128, 1962). The animals had been caged under normal conditions and kept fasting for the last 18 hours.
(§2) Following administration of the compounds, the behaviour of the animals was monitored for 6 hours. The compounds were suspended in 10% arabic gum and orally administered at doses equimolar to 90, 23, 5.4 and 1.4 mg piracetam/10mL/kg of body weight.
(§3) The animals of the control groups were administered 10% arabic gum (10mL/kg, orally).

male CDI Mice = assay: Behavioural profile (Irwin test); assay type: in vivo; conditions: oral, the other doses (equimolar to 23, 5.4 and 1.4 mg piracetam/10mL/kg), monitored for 6 hours
Method: as §1, §2, §3

[2] = relative to oxiracetan; cited from earlier work
[3] = 0.9 mg/kg (i.p., dose equimolar to 0.9 mg piracetam kg-1)
[4] = 9mg/kg (i.p., dose equimolar to 9.0 mg piracetam kg-1)

Row | SMILES | %AR (ECS-induced amnesia; [3]) | %AR (ECS-induced amnesia; [4]) | mortality at 6 h [1] | toxicity (male CDI Mice) | doses for nootropic activity, times as high as those of oxiracetan [2]
1 | CC(C)N(CCNC(=O)[C@@H]1CCCN1C(=O)OCc1ccccc1)C(C)C [ST 691, (S)-1-[N-(BENZYLOXYCARBONYL)-PROLYL]-2,2(DIISOPROPYL)-ETHYLENDIAMINE] | 52% | 0% | 100% | non toxic | –
2 | O=C1CC[C@@H](C(=O)O)N1 [L-pyroglutamic acid] | – | – | – | – | 5-10 times
3 | O=C(NCCO)[C@@H]1CCCN1C(=O)OCc1ccccc1 [ST 704, (S)-N-[N-(BENZYLOXYCARBONYL)-PROLYL]-ETHANOLAMINE] | 0% | 46% | – | – | –
4 | CC(C)N(CCNC(=O)[C@@H]1CCCN1C=O)C(C)C [ST 849, (S)-1-[N-(FORMYL)-PROLYL]-2.2(DIISOPROPYL)-ETHYLENDIAMINE] | 3% | 59% | – | – | –
5 | NC(=O)CN1CCCC1=O [Piracetam, reference compound] | 0% | 0% | – | – | –
6 | O=C([C@@H]1CCCN1C(=O)OCc1ccccc1)N1CCN(c2cccc(Cl)c2)CC1 [ST 792, (S)-1-[N-(BENZYLOXYCARBONYL)-PROLYL]-4-(3-CHLOROPHENYL)-PIPERAZINE] | 26% | 0% | – | – | –

From patent publication EP0541497A1, “Prolineamide derivatives as enhancers of learning processes and memory and pharmaceutical compositions containing same” (Sigma-Tau Industrie Farmaceutiche Riunite S.p.A., priority 1991, dated 1993)
